Where “and” joins values, the source holds several entries; their conditions need not be identical. Identical values can stand only once. Inconclusive results and toxic doses are left out.
Test system: BDF1 mice, P388 leukemia ip, median survival T/C
Experiment: NCI In Vivo Anticancer Drug Screen. Data for tumor model P388 Leukemia (intraperitoneal) in B6D2F1 (BDF1) mice
Conditions: endpoint: median survival time, higher = longer survival
Method in brief: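 T/C = treated-group survival ÷ vehicle-control survival; tumour transplanted into mice before dosing.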

[1] = dose: 50.0 mg/kg/injection, schedule: Q01DX009 (ip), vehicle: saline with Tween-80
[2] = dose: 100.0 mg/kg/injection, schedule: Q01DX009 (ip), vehicle: saline with Tween-80
[3] = dose: 100.0 mg/kg/injection, schedule: Q04DX003 (ip), vehicle: saline with Tween-80
[4] = dose: 200.0 mg/kg/injection, schedule: Q04DX003 (ip), vehicle: saline with Tween-80
[5] = dose: 400.0 mg/kg/injection, schedule: Q04DX003 (ip), vehicle: saline with Tween-80
[6] = dose: 400.0 mg/kg/injection, schedule: Q01DX009 (ip), vehicle: saline with Tween-80
[7] = dose: 25.0 mg/kg/injection, schedule: Q01DX009 (ip), vehicle: Klucel (hydroxypropylcellulose) (HPC)
[8] = dose: 50.0 mg/kg/injection, schedule: Q01DX009 (ip), vehicle: Klucel (hydroxypropylcellulose) (HPC)
[9] = dose: 100.0 mg/kg/injection, schedule: Q01DX009 (ip), vehicle: Klucel (hydroxypropylcellulose) (HPC)
[10] = dose: 200.0 mg/kg/injection, schedule: Q01DX009 (ip), vehicle: Klucel (hydroxypropylcellulose) (HPC)
[11] = dose: 400.0 mg/kg/injection, schedule: Q01DX009 (ip), vehicle: Klucel (hydroxypropylcellulose) (HPC)

In the case of `O=C1NN(c2ccccc2)C(=O)/C1=C\c1ccccc1O`, the T/C (dose: 350.0 mg/kg/injection, schedule: Q01DX009 (ip), vehicle: saline with Tween-80) is reported as 97 % of control.

`CC(=O)c1ccccc1[N+](=O)[O-]` was tested, and the T/C [1] was 95 % of control, the T/C [2] was 100 % of control and the T/C [3] was 95 % of control. The T/C (dose: 200.0 mg/kg/injection, schedule: Q01DX009 (ip), vehicle: saline with Tween-80) was 86 % of control, the T/C [4] was 90 % of control and the T/C [5] was 100 % of control.

With `C[C@]12CC[C@@H]3c4ccc(OC(=O)Cc5ccc(N(CCCl)CCCl)cc5)cc4CC[C@H]3[C@@H]1CC[C@@H]2OC(=O)Cc1ccc(N(CCCl)CCCl)cc1` the T/C (dose: 64.0 mg/kg/injection, schedule: Q01DX009 (ip), vehicle: Klucel (hydroxypropylcellulose) (HPC)) was 95 % of control and 105 % of control, the T/C [2] was 118 % of control and the T/C (dose: 128.0 mg/kg/injection, schedule: Q01DX009 (ip), vehicle: Klucel (hydroxypropylcellulose) (HPC)) was 98 % of control and 123 % of control. For the same compound, the T/C (dose: 256.0 mg/kg/injection, schedule: Q01DX009 (ip), vehicle: Klucel (hydroxypropylcellulose) (HPC)) was 111 % of control, the T/C (dose: 264.0 mg/kg/injection, schedule: Q04DX003 (ip), vehicle: saline with Tween-80) was 108 % of control and the T/C [6] was 200 % of control. For the same compound, the T/C [5] was 112 % of control and the T/C (dose: 512.0 mg/kg/injection, schedule: Q01DX009 (ip), vehicle: Klucel (hydroxypropylcellulose) (HPC)) was 195 % of control.

For `C/C1=C/C2=CC(C)C[C@@H]2C(=O)[C@]2(C)C(=O)CC(C)(C)[C@H]2CC1=O` (stereo partly specified), the T/C (dose: 0.12 mg/kg/injection, schedule: Q01DX009 (ip), vehicle: alcohol) was 106 % of control, the T/C (dose: 0.25 mg/kg/injection, schedule: Q01DX009 (ip), vehicle: alcohol) was 122 % of control and the T/C (dose: 1.4 mg/kg/injection, schedule: Q01DX009 (ip), vehicle: alcohol) was 108 % of control. The T/C (dose: 2.2 mg/kg/injection, schedule: Q01DX009 (ip), vehicle: alcohol) was 110 % of control.

With `NCCCCS(=O)(=O)Nc1ccc(Nc2c3ccccc3nc3cc([N+](=O)[O-])ccc23)cc1` the T/C (dose: 2.93 mg/kg/injection, schedule: Q04DX003 (ip), vehicle: saline) was 122 % of control, the T/C (dose: 33.0 mg/kg/injection, schedule: Q04DX003 (ip), vehicle: saline) was 154 % of control and the T/C (dose: 50.0 mg/kg/injection, schedule: Q04DX003 (ip), vehicle: saline) was 154 % of control. The T/C (dose: 75.0 mg/kg/injection, schedule: Q04DX003 (ip), vehicle: saline) was 172 % of control, the T/C (dose: 100.0 mg/kg/injection, schedule: Q04DX003 (ip), vehicle: saline) was 161 % of control and the T/C (dose: 200.0 mg/kg/injection, schedule: Q04DX003 (ip), vehicle: saline) was 161 % of control.

For `CC(=O)NCCSC(=O)C(=O)SCCNC(C)=O`, the T/C (dose: 75.0 mg/kg/injection, schedule: Q01DX009 (ip), vehicle: Klucel (hydroxypropylcellulose) (HPC)) was 100 % of control and the T/C (dose: 150.0 mg/kg/injection, schedule: Q01DX009 (ip), vehicle: Klucel (hydroxypropylcellulose) (HPC)) was 95 % of control.

`CC1CCC[N-]C1.CC1CCC[N-]C1.[Cl][Pt+2]([Cl])([Cl])[Cl]` (stereo unspecified) was tested, and the T/C (dose: 3.12 mg/kg/injection, schedule: Q01DX009 (ip), vehicle: saline) was 150 % of control and 154 % of control, the T/C (dose: 6.25 mg/kg/injection, schedule: Q01DX009 (ip), vehicle: saline) was 172 % of control and the T/C (dose: 8.2 mg/kg/injection, schedule: Q01DX009 (ip), vehicle: saline) was 161 % of control. The T/C (dose: 25.0 mg/kg/injection, schedule: Q01DX009 (ip), vehicle: saline) was 154 % of control.

In the case of `COC(=O)N1C=Cc2ccccc2C1C#N` (stereo unspecified), the T/C (dose: 25.0 mg/kg/injection, schedule: Q01DX001 (ip), vehicle: other) is reported as 104 % of control, the T/C (dose: 25.0 mg/kg/injection, schedule: Q01DX009 (ip), vehicle: saline with Tween-80) is reported as 105 % of control and the T/C (dose: 25.0 mg/kg/injection, schedule: Q04DX003 (ip), vehicle: saline with Tween-80) is reported as 100 % of control. For the same compound, the T/C (dose: 50.0 mg/kg/injection, schedule: Q01DX001 (ip), vehicle: other) was 90 % of control, the T/C [1] was 110 % of control and the T/C (dose: 50.0 mg/kg/injection, schedule: Q04DX003 (ip), vehicle: saline with Tween-80) was 104 % of control. The T/C (dose: 100.0 mg/kg/injection, schedule: Q01DX001 (ip), vehicle: other) was 86 % of control, the T/C [2] was 110 % of control and the T/C [3] was 100 % of control.

In the case of `CO[C@@H]([CH2][Hg][S]C#N)[C@@H]([CH2][Hg][S]C#N)OC`, the T/C (dose: 6.25 mg/kg/injection, schedule: Q01DX009 (ip), vehicle: other) is reported as 110 % of control, the T/C (dose: 12.5 mg/kg/injection, schedule: Q01DX009 (ip), vehicle: other) is reported as 120 % of control and the T/C (dose: 25.0 mg/kg/injection, schedule: Q01DX009 (ip), vehicle: other) is reported as 100 % of control and 109 % of control. The T/C (dose: 25.0 mg/kg/injection, schedule: Q04DX003 (ip), vehicle: other) was 100 % of control, the T/C (dose: 50.0 mg/kg/injection, schedule: Q04DX003 (ip), vehicle: other) was 103 % of control and the T/C (dose: 100.0 mg/kg/injection, schedule: Q04DX003 (ip), vehicle: saline sonified) was 90 % of control.

With `Cc1cc(C)c(C(=O)C=O)c(C)c1` the T/C [7] was 99 % of control, the T/C [8] was 104 % of control and the T/C [9] was 110 % of control.

With `ClC(Cl)(Cl)c1ccc(C(Cl)(Cl)Cl)cc1` the T/C (dose: 6.0 mg/kg/injection, schedule: Q01DX009 (ip), vehicle: Klucel (hydroxypropylcellulose) (HPC)) was 100 % of control, the T/C (dose: 6.25 mg/kg/injection, schedule: Q01DX009 (ip), vehicle: Klucel (hydroxypropylcellulose) (HPC)) was 90 % of control and the T/C (dose: 12.0 mg/kg/injection, schedule: Q01DX009 (ip), vehicle: Klucel (hydroxypropylcellulose) (HPC)) was 104 % of control. For the same compound, the T/C (dose: 12.5 mg/kg/injection, schedule: Q01DX009 (ip), vehicle: Klucel (hydroxypropylcellulose) (HPC)) was 90 % of control, the T/C (dose: 12.5 mg/kg/injection, schedule: Q04DX003 (ip), vehicle: Klucel (hydroxypropylcellulose) (HPC)) was 105 % of control and the T/C (dose: 22.0 mg/kg/injection, schedule: Q04DX003 (ip), vehicle: Klucel (hydroxypropylcellulose) (HPC)) was 96 % of control and 118 % of control. For the same compound, the T/C [7] was 104 % of control, the T/C (dose: 25.0 mg/kg/injection, schedule: Q04DX003 (ip), vehicle: Klucel (hydroxypropylcellulose) (HPC)) was 120 % of control and the T/C (dose: 33.0 mg/kg/injection, schedule: Q04DX003 (ip), vehicle: Klucel (hydroxypropylcellulose) (HPC)) was 119 % of control and 122 % of control. For the same compound, the T/C [8] was 90 % of control and 100 % of control, the T/C (dose: 75.0 mg/kg/injection, schedule: Q04DX003 (ip), vehicle: Klucel (hydroxypropylcellulose) (HPC)) was 100 % of control and the T/C [9] was 100 % of control. For the same compound, the T/C (dose: 150.0 mg/kg/injection, schedule: Q04DX003 (ip), vehicle: Klucel (hydroxypropylcellulose) (HPC)) was 109 % of control, the T/C (dose: 250.0 mg/kg/injection, schedule: Q04DX003 (ip), vehicle: Klucel (hydroxypropylcellulose) (HPC)) was 100 % of control and the T/C (dose: 400.0 mg/kg/injection, schedule: Q04DX003 (ip), vehicle: Klucel (hydroxypropylcellulose) (HPC)) was 104 % of control.

`CCOC(=O)C1=C2c3ccc4ccccc4c3CCC2(C)C(=O)C1` (stereo unspecified) was tested, and the T/C (dose: 10.0 mg/kg/injection, schedule: Q01DX009 (sc), vehicle: steriod suspending solution) was 104 % of control, the T/C (dose: 18.0 mg/kg/injection, schedule: Q04DX003 (sc), vehicle: steriod suspending solution) was 91 % of control and the T/C (dose: 20.0 mg/kg/injection, schedule: Q01DX009 (sc), vehicle: steriod suspending solution) was 95 % of control. For the same compound, the T/C (dose: 37.5 mg/kg/injection, schedule: Q04DX003 (sc), vehicle: steriod suspending solution) was 95 % of control, the T/C (dose: 40.0 mg/kg/injection, schedule: Q01DX009 (sc), vehicle: steriod suspending solution) was 100 % of control and the T/C (dose: 75.0 mg/kg/injection, schedule: Q04DX003 (sc), vehicle: steriod suspending solution) was 108 % of control.

With `[Cl][Pt+2][Cl].[NH-]C1CCCC1.[NH-]C1CCCC1` the T/C (dose: 10.0 mg/kg/injection, schedule: Q01DX009 (ip), vehicle: Klucel (hydroxypropylcellulose) (HPC)) was 96 % of control, the T/C (dose: 20.0 mg/kg/injection, schedule: Q01DX009 (ip), vehicle: Klucel (hydroxypropylcellulose) (HPC)) was 107 % of control and the T/C (dose: 40.0 mg/kg/injection, schedule: Q01DX009 (ip), vehicle: Klucel (hydroxypropylcellulose) (HPC)) was 112 % of control. The T/C (dose: 80.0 mg/kg/injection, schedule: Q01DX009 (ip), vehicle: Klucel (hydroxypropylcellulose) (HPC)) was 117 % of control.

`O=[N+]([O-])c1ccc2[nH]c3c(c2c1)CSCC3` was tested, and the T/C [1] was 100 % of control, the T/C [9] was 100 % of control and the T/C [2] was 96 % of control. For the same compound, the T/C [3] was 109 % of control, the T/C [10] was 90 % of control and the T/C [4] was 107 % of control. For the same compound, the T/C [11] was 86 % of control, the T/C [6] was 91 % of control and the T/C [5] was 110 % of control.

`CC(=O)Nc1ccc(C=Nc2ccc3c(c2)Cc2ccccc2-3)cc1` was tested, and the T/C [9] was 109 % of control, the T/C [10] was 118 % of control and the T/C [11] was 118 % of control.

Reference: PubChem BioAssay AID328 (DTP/NCI, 2004)
